Measured values published in the NIST ThermoML archive (doi:10.1021/je0604232).

Assay: molar heat capacity at constant pressure; xn = mol fraction of the nth substance listed
Conditions: 101 kPa, Liquid

CN(C)CCO [2-(N,N-dimethylamino)ethanol] + O
molar heat capacity at constant pressure [J/K/mol]
Conditions	x1 = 0.0997	x1 = 0.1962	x1 = 0.3003	x1 = 0.3984	x1 = 0.4983	x1 = 0.6008	x1 = 0.698	x1 = 0.7981	x1 = 0.8938	x1 = 1
303.15 K	103	118	132	144	156	168	179	191	202	213
308.15 K	104	119	134	146	158	170	181	193	205	215
313.15 K	105	121	136	149	161	173	185	196	208	217
318.15 K	105	123	139	152	164	177	188	199	210	219
323.15 K	107	125	141	155	168	180	191	203	213	221
328.15 K	108	127	144	158	171	184	195	206	215	222
333.15 K	109	129	147	161	175	187	199	209	217	223
338.15 K	112	132	150	165	179	192	203	213	220	223
343.15 K	114	136	155	170	184	196	208	218	223	223
348.15 K	118	140	160	176	190	203	214	223	225	224
353.15 K	123	146	166	184	198	210	221	229	228	226
